From publication PMC11069232, “NB compounds are potent and efficacious FOXM1 inhibitors in high-grade serous ovarian cancer cells” (Journal of Ovarian Research, 2024)
Read-outs that look alike come from different tables or passages of the source.

How the values were obtained:
Assay type in all cases: cell-based, human
FT282-C11 cells [1] = assay: CyQuant cell viability assay, FT282-C11 (immortalized FTE control); details: for Efficacy: % loss of cell viability at maximum tested concentration; for Fold HGSOC cell selectivity: IC50 in FT282-C11 divided by the averaged IC50 values of CAOV3 and OVCAR4 cells
Experimental: (§1) Cells were seeded into 96-well plates and treated with serial dilutions with the designated compounds for 72 h. Medium was then removed from the wells, and the cells were frozen at -80 °C for storage. After thawing, cell viability was analyzed using the CyQUANT™ Cell Proliferation Assay for cells in culture (Invitrogen, ThermoFisher Scientific, Waltham, MA, USA), according to manufacturer’s instructions. The CyQuant assay utilizes a DNA binding fluorescent dye, and the signal is proportional to the number of live cells, which thus reflects the effect of drug treatment on both cell proliferation and cytotoxicity. To integrate these two measures (proliferation and cytotoxicity) into one simple term, we refer to CyQuant data as a measure of cell viability. Fluorescence intensity was measured using POLARstar OPTIMA microplate multi-detection plate reader (BMG LabTech, Cary, NC, USA) with settings specified by the manufacturer’s instructions.
To investigate the cancer cell selectivity of FOXM1 inhibitors, we utilized the immortalized (FTE) cell line FT282-C11 as non-malignant, cell of origin matched control. […] We tested a sub-set of FOXM1 inhibitors, including the three NB compounds and the two most widely used FOXM1 inhibitors, thiostrepton and FDI-6.

OVCAR4 cells [2] = assay: CyQuant cell viability assay, OVCAR4; details: for Efficacy: % loss of cell viability at maximum tested concentration
Experimental: as §1

HGSOC cells = assay: CyQuant cell viability assay, HGSOC cells (CAOV3 and OVCAR4), summary in words; details: summary of Table 3
Experimental: as §1
We investigated the effect of eight previously reported FOXM1 inhibitors on HGSOC cell viability. We utilized CAOV3 and OVCAR4 cells, which are validated to model HGSOC both in vitro and in vivo [38, 39], and measured the effect on cell viability using CyQuant assays. The data are summarized in Table 3 (drugs ordered alphabetically).

CAOV3 cells [3] = assay: CyQuant cell viability assay, CAOV3; details: for Efficacy: % loss of cell viability at maximum tested concentration
Experimental: as §1

CAOV3 cells [4] = assay: Caspase-3/7 activity assay, CAOV3; details: 24 h
Experimental: (§2) Cells were seeded into 6-well plates and treated with the designated compounds until the desired time point. Floating cells and trypsinized cells from the wells were collected, centrifuged at 500 × g, and washed with PBS. Cells were prepared using the Muse® Caspase-3/7 Kit (Luminex Corporation, Austin, TX, USA) according to the manufacturer’s instructions. Cells were analyzed by flow cytometry using the Guava® Muse® Cell Analyzer (Luminex Corporation).

FT282-C11 cells [5] = assay: Caspase-3/7 activity assay, FT282-C11; details: 24 h
Experimental: as §2

CAOV3 cells [6] = assay: Incucyte kinetic analysis of live and dead cells; details: 0.1 μM
Experimental: CAOV3 cells were seeded into 96-well plates in DMEM media containing Incucyte Nuclight Rapid Red Dye (Sartorius, Bohemia, NY, USA, Cat #4717) 1:1,000 (for live cell nuclear labeling) and Incucyte Cytotox Green Dye (Sartorius Cat #4633) 250 μM (for counting of dead cells). The following day, cells were treated with DMSO or NB compounds at 0.1, 0.5 or 1.0 μM concentrations. After treatment, cells were incubated in a Incucyte S3 time lapse imager (Sartorius). We obtained 5 pictures per well every 2 h, for a total of 72 h. Data were analyzed and plotted using Incucyte Live-cell Imaging and Analysis software.

[7] = tested on: FOXM1 targets (CCNB1, PLK1, AURKB, CDC25B); assay: Western blot of FOXM1 target proteins in HGSOC cells; details: CAOV3 and OVCAR4; low micromolar treatments
Experimental: Whole cell proteins were extracted using radio-immunoprecipitation assay (RIPA) buffer (1X PBS, 1% NP-40, 0.5% sodium deoxycholate, 0.1% sodium dodecyl sulfate [SDS]) supplemented with protease and phosphatase inhibitors (Sigma-Aldrich). Briefly, media was removed from cells, cells were washed in ice cold PBS, and cells were lysed for 15 min in RIPA buffer, collected from the plate, and sonicated. The resulting extracts were centrifuged at 4 °C for 10 min at 16,100 × g to remove cell debris. In some cases (e.g., when measuring apoptotic markers such as cleaved PARP) floating cells were isolated in parallel and combined with the remainder of the cell sample prior to protein extraction. Protein concentrations were determined using the Pierce™ BCA Protein Assay Kit (Fisher Scientific, Waltham, MA, USA).
Equivalent amounts of protein per well, as determined by BCA assays, were loaded into Invitrogen™ NuPAGE™ 4–12%, Bis–Tris, 1.5 mm, mini protein gels (Fisher Scientific) or 7.5% Mini-Protein TGX precast protein gels (Bio-Rad, Hercules, CA, USA), and subsequently transferred to 0.45 µm polyvinylidene difluoride (PVDF) membranes (Millipore Sigma, St. Louis, MO, USA), using a wet transfer system. […] Quantification of protein expression was performed using Fiji software.

OVCAR4 cells [8] = assay: Caspase-3/7 activity assay, OVCAR4; details: 24 h
Experimental: as §2

CAOV3 cells [9] = assay: Drug washout study, CyQuant cell viability; details: Fig. 7E-F
Experimental: as §1
To assess FOXM1 protein expression, cells were seeded into 6-well plates and treated with DMSO or NB compounds the next day. At 3- or 6-h post-treatment, media was aspirated and cells were washed with PBS and incubated with drug-free media until reaching 24, 48, or 72 h post the initial treatment. At time points post-treatment, protein was isolated from washout and no washout (i.e., continuous treatment) treatment conditions and used for western blotting. To assess the effects of drug washout on cell viability, cells were seeded in 96-well plates, treated as described above, and cell viability was assessed at 72 h post the initial treatment using CyQuant assays.

[10] = FT282-C11, CyQuant, Table 4, read-out: IC50
[11] = OVCAR4, % loss of cell viability at the maximum tested drug concentration (printed in parentheses in the cell), Table 3
[12] = OVCAR4, CyQuant, Table 4, read-out: IC50
[13] = OVCAR4, cell viability, CyQuant, 72 h, Table 3, read-out: Potency [IC50 (µM)]
[14] = CAOV3, % loss of cell viability at the maximum tested drug concentration (printed in parentheses in the cell), Table 3
[15] = CAOV3, CyQuant, Table 4, read-out: IC50
[16] = CAOV3, cell viability, CyQuant, 72 h, Table 3, read-out: Potency [IC50 (µM)]
[17] = Homo sapiens, OVCAR-4, 72 h, read-out: Potency [IC50 (µM)]
[18] = Homo sapiens, OVCAR-4, read-out: % Efficacy (maximum dose)
[19] = Homo sapiens, Caov-3, 72 h, read-out: Potency [IC50 (µM)]
[20] = Homo sapiens, Caov-3, read-out: % Efficacy (maximum dose)

Compound | Efficacy (FT282-C11 cells [1]; FT282-C11, Table 4) [%] | IC50 (FT282-C11 cells [1]; [10]) [nM] | Fold HGSOC cell selectivity (FT282-C11 cells [1]) | Efficacy (OVCAR4 cells [2]; OVCAR4, Table 4) [%] | % Efficacy (maximum dose) (OVCAR4 cells [2]; [11]) | IC50 (OVCAR4 cells [2]; [12]) [µM] | IC50 (OVCAR4 cells [2]; [13]) [µM] | potency and efficacy on HGSOC cell viability, in words (HGSOC cells) | Efficacy (CAOV3 cells [3]; CAOV3, Table 4) [%] | % Efficacy (maximum dose) (CAOV3 cells [3]; [14]) | IC50 (CAOV3 cells [3]; [15]) [µM] | IC50 (CAOV3 cells [3]; [16]) [µM] | IC50 (OVCAR4 cells [2]; [17]) [µM] | Emax (OVCAR4 cells [2]; [18]) [%] | IC50 (CAOV3 cells [3]; [19]) [µM] | Emax (CAOV3 cells [3]; [20]) [%] | other results
Nc1c(C(=O)Nc2ccc(F)cc2)sc2nc(-c3cccs3)cc(C(F)(F)F)c12 [FDI-6] | 76 | 11000 | 1.6 | 61 | 61% (20 μM) | 4.7 | 4.7 | low potency | 61 | 61% (20 μM) | 9.1 | 9.1 | – | – | – | – | –
CC[N+](C)(CC)CCCCCCOc1ccc(C(c2ccc(OCCCCCC[N+](C)(CC)CC)cc2)=C2C3C[C@H]4C[C@@H](C3)C[C@H]2C4)cc1 [NB-115] | 100 | 3800 | 7.2 | 85 | 85% (10 μM) | 0.56 | 0.56 | – | 100 | 100% (10 μM) | 0.49 | 0.49 | – | – | – | – | caspase 3/7 activity (CAOV3 cells [4]): robust increase in caspase 3/7 activity; selectivity for HGSOC cells (FT282-C11 cells [1]; HGSOC cells vs FT282-C11, summary of Table 4): approximately tenfold; caspase 3/7 activity (FT282-C11 cells [5]): but not in FT282-C11 cells; cell proliferation compared to the DMSO control (CAOV3 cells [6]): increased proliferation; FOXM1 targets at the protein level [7]: suppressed FOXM1 targets at the protein level; caspase 3/7 activity (OVCAR4 cells [8]): robust increase in caspase 3/7 activity; IC50 (CAOV3 cells [9]; continuous drug exposure 72 h, viability at 72 h, read-out: IC50 (CAOV3), no washout (72h)): 830 nM; IC50 (CAOV3 cells [9]; washout after 3 h, viability at 72 h post initial treatment, read-out: IC50 (CAOV3), 3 h drug exposure then washout (3h)): 2150 nM; IC50 (CAOV3 cells [9]; washout after 6 h, viability at 72 h post initial treatment, read-out: IC50 (CAOV3), 6 h drug exposure then washout (6h)): 2300 nM
C=C(NC(=O)C(=C)NC(=O)c1csc(C2=N[C@@H]3c4csc(n4)[C@H]4NC(=O)c5csc(n5)[C@H]([C@](C)(O)[C@@H](C)O)NC(=O)[C@H]5CSC(=N5)/C(=C/C)NC(=O)[C@H]([C@@H](C)O)NC(=O)c5csc(n5)[C@]3(CC2)NC(=O)[C@H](C)NC(=O)C(=C)NC(=O)[C@H](C)NC(=O)[C@H]([C@@H](C)CC)N[C@@H]2C=Cc3c([C@H](C)O)cc(nc3[C@H]2O)C(=O)O[C@@H]4C)n1)C(N)=O [Thiostrepton] | 100 | – | 0.91 | 99 | – | – | – | high potency and efficacy | 93 | – | – | – | 0.98 | 99 | 0.62 | 93 | IC50 (FT282-C11 cells [1]; Homo sapiens): 730 nM; IC50 (OVCAR4 cells [2]; Homo sapiens, OVCAR-4): 0.98 µM; IC50 (CAOV3 cells [3]; Homo sapiens, Caov-3): 0.62 µM
CC[C@@]1([C@@H]2O[C@@H]([C@H]3O[C@@](O)(CO)[C@H](C)C[C@@H]3C)C[C@@H]2C)CC[C@H]([C@]2(C)CC[C@]3(C[C@H](O)[C@@H](C)[C@@H]([C@@H](C)[C@@H](OC)[C@H](C)C(=O)O)O3)O2)O1 [Monensin, monensin] | – | – | – | – | – | – | – | high potency but low efficacy in one cell line (OVCAR4) | – | – | – | – | – | – | – | – | Emax (OVCAR4 cells [2]; Homo sapiens, OVCAR-4, OVCAR4, % loss of cell viability at the maximum tested drug concentration (printed in parentheses in the cell), Table 3, read-out: % Efficacy (maximum dose)): 52%; IC50 (OVCAR4 cells [2]; Homo sapiens, OVCAR-4, OVCAR4, cell viability, CyQuant, 72 h, Table 3, read-out: Potency [IC50 (µM)]): 0.024 µM; Emax (CAOV3 cells [3]; Homo sapiens, Caov-3, CAOV3, % loss of cell viability at the maximum tested drug concentration (printed in parentheses in the cell), Table 3, read-out: % Efficacy (maximum dose)): 100%; IC50 (CAOV3 cells [3]; Homo sapiens, Caov-3, CAOV3, cell viability, CyQuant, 72 h, Table 3, read-out: Potency [IC50 (µM)]): 0.1 µM
c1ccc(Nc2cc3ccccc3c3ccccc23)cc1 [N-phenylphenanthren-9-amine (NP9), N-phenylphenanthren-9-amine] | – | – | – | – | – | – | – | low potency | – | – | – | – | 39 | 100 | 23 | 85 | –
